Assay results reported in patent publication US20250177351A1, “ISOINDOLINE COMPOSITIONS AND METHODS FOR TREATING NEURODEGENERATIVE DISEASE” (Cognition Therapeutics, Inc., priority 2022, published 2025).
Entries after “also recorded” stand apart in the source; their conditions may differ. Marks after values point to notes of the source that are not given here.

How the values were obtained:
[1] = tested on: DIV21 hippocampal/cortical cultures with Aβ oligomers; assay: Neurogranin expression study in vitro; type: cell-based; settings: Aβ42 oligomers 500 nM, 1 hr, followed by CT1812 4.8 nM, 24 hr
Description: Neurons were fixed in 3.75% formaldehyde and stained with full-length neurogranin (Abcam catalogue #ab23570, used in combination with novel Ng7 to detect full length neurogranin inAlzheimer's disease patient brain IP; Kvartsberg et al. 2015 Blennow lab), MAP2 (Millipore), and 4G8 (Biolegend) antibodies. Imaging was performed on Cellomics VX automated microscope with a 20×, 0.75 NA objective and analyzed using a compartmental analysis algorithm to measure staining in the nucleus versus cytoplasm.

[2] = Phase 1b/2a clinical trial (COG0102): safety, tolerability, exploratory cognitive outcomes; type: in vivo, human
Description: Safety and pharmacokinetics were primary objectives of the study, with changes in molecular biomarkers and cognitive outcomes identified as an exploratory objective.
Plasma and CSF protein expression were measured by LC/MSMS in samples drawn prior to dosing (Day 0) and at end of dosing (Day 28) and were compared within each patient and between dosing groups.
COG0102 clinical trial: This trial (ClinicalTrials.gov NCT02907567) was a randomized, double-blind, placebo-controlled clinical trial in mild to moderate Alzheimer's patients (MMSE 18-26) (See FIG. 1 for clinical trial design). The trial was conducted at six sites in Australia. Patients were randomized into placebo (n=5) or CT1812-treated groups: 90 mg (n=4), 280 mg (n=5) or 560 mg (n=5) and treated once daily for 28 days. Clinical chemistry was done at Sydpath (Sydney, AU). Pharmacokinetics were done at CPR Pharma Services (Adelaide, AU). Cerebrospinal fluid samples were taken at screening and day 21-28 of treatment and aliquoted. Plasma samples were taken at screening or Day 1 (one sample) and day 14-28, then spun down to separate plasma and aliquoted. One set of CSF samples was analyzed for Alzheimer's disease biomarkers; protein measurements (Aβ42, Aβ40, total tau, tau phosphorylated at threonine 181 (phosphorylated tau), NFL and neurogranin) were performed using commercially available ELISA assays from Fujirebio according to the manufacturer's instructions (INNOTEST β-AMYLOID(1-42), INNOTEST β-AMYLOID(1-40), INNOTEST hTau Ag, INNOTEST PHOSPHO-TAU(181P), Uman Diagnostics NFL assay). Neurogranin was measured with a sandwich ELISA method using antibodies Ng2 and Ng22 developed at the University of Gotteborg (Kvartsberg et al. 2015). Identical aliquots of CSF, and plasma were analyzed for protein expression changes via LC/MSMS at Caprion (see below).

[3] = Phase 1 single ascending dose (SAD)/food-effect study: plasma pharmacokinetics; type: in vivo, human
Description: A Phase 1, two-part single and multiple ascending dose study was conducted in 7 and 4 cohorts of healthy human subjects respectively. […] In Part B, subjects were administered 280, 560, and 840 mg once daily for 14 days (8:2 A:P per cohort). An elderly cohort, age 65-75, was dosed at 560 mg once daily for 14 days (7:2 A:P). […] Cognitive testing was performed in the healthy elderly cohort at baseline and at Day 14 of treatment.
Part A was a single ascending dose cohort study in which healthy, young subjects (less than 65 years old) received one dose of study drug in the morning after an overnight fast. Cohort dosing started at 10 mg and increased to 30 mg, 90 mg, 180 mg, 450 mg, and 1120 mg in subsequent cohorts. Six drug-treated and two placebo-treated subjects were randomized in each cohort. A seventh cohort of six subjects each received a single 90 mg dose of drug 30 min. after a meal. Following completion of all safety assessments and blood draws for PK analyses, subjects were discharged on Day 3.
In Part A, blood draws for assessment of PK parameters occurred pre-dose and at 15, 30, 45, 60, and 90 minutes post dose as well as at 2, 3, 4, 8, 12, 24, 36, and 48 hours post dose. […] In Part B, blood samples for plasma PK analysis were taken on Day 1 at pre-dose and at 2 hours post-dose, on Day 3 at pre-dose and at 15, 30 and 45 minutes and 1, 2, 3, 4, 8, 12 and 24 hours post-dose, on Days 4, 6, 8 and 10 at pre-dose and at 1.5 hours post-dose and following the final dose on Day 14 at pre-dose and 15, 30 and 45 minutes and 1, 2, 4, 8, 12, 24, 36 and 48 hours post-dose.
This was assessed by analysis of variance (ANOVA) of log-transformed Cmax, AUC0-24, AUC0-48, and/or AUC0-inf, using a model with factors for treatment (fed status or age [young vs. elderly] status) and subject within sequence. Treatment mean differences and 90% confidence intervals of the log transformed PK parameters were back-transformed, to present the geometric least squares means ratios and 90% confidence limits.

[4] = tested on: CSF proteins; assay: CSF proteomics by tandem-mass tag mass spectrometry (TMT-MS), SPARC trial; type: in vivo, human
Text: A stringent filter was used to reduce noise. […] Samples were acquired from placebo and the drug and interventional cohort. Using biomarker differential-expression analysis, proteins that were differentially expressed between drug and placebo cohorts were identified (p<0.05).

[5] = AD patients, 28 days, 90 mg (as in Table 3)
[6] = AD patients, 28 days, 90 mg (n = 4)
[7] = AD patients, 28 days, 280 mg (as in Table 3)
[8] = AD patients, 28 days, 280 mg (n = 5)
[9] = AD patients, 28 days, 560 mg (as in Table 3)
[10] = AD patients, 28 days, 560 mg (n = 5)
[11] = AD patients treated at least 6 months, p<0.05

CC(C)(C)Oc1cc(CCC(C)(C)N2Cc3ccc(S(C)(=O)=O)cc3C2)ccc1O [CT1812]
full length neurogranin protein expression in neurons [1]: restores neurogranin expression | patients with lymphocytopenia ([2]; AD patients, 560 mg, 3 mild, resolved by end of study): Four | ALT in one participant ([2]; AD patients, 560 mg, resolved by end of study, no increase in bilirubin): ~4.7 ×ULN | tolerability ([2]; AD patients, 90, 280 and 560 mg, 28 days): well tolerated with no drug-related significant adverse events reported; also recorded: generally safe and well tolerated at all doses | Headache [2, 5]: 1 (25%) n (%) | Lymphocytopenia [2, 5]: 0 (0%) n (%) | Nausea [2, 5]: 0 (0%) n (%) | Vomiting [2, 5]: 0 (0%) n (%) | Mild TEAEs [2, 6]: 4 (100%) n (%) | Moderate TEAEs [2, 6]: 0 (0%) n (%) | SAEs [2, 6]: 0 (0%) n (%) | Severe TEAEs [2, 6]: 0 (0%) n (%) | TEAEs [2, 6]: 3 (75%) n (%) | Headache [2, 7]: 0 (0%) n (%) | Lymphocytopenia [2, 7]: 0 (0%) n (%) | Nausea [2, 7]: 0 (0%) n (%) | Vomiting [2, 7]: 0 (0%) n (%) | Mild TEAEs [2, 8]: 3 (60%) n (%) | Moderate TEAEs [2, 8]: 1 (20%) n (%) | SAEs [2, 8]: 0 (0%) n (%) | Severe TEAEs [2, 8]: 0 (0%) n (%) | TEAEs [2, 8]: 4 (80%) n (%) | Headache [2, 9]: 2 (40%) n (%) | Lymphocytopenia [2, 9]: 3 (60%)* n (%) | Nausea [2, 9]: 2 (40%) n (%) | Vomiting [2, 9]: 2 (40%) n (%) | Mild TEAEs [2, 10]: 5 (100%) n (%) | Moderate TEAEs [2, 10]: 3 (60%) n (%) | SAEs [2, 10]: 0 (0%) n (%) | Severe TEAEs [2, 10]: 0 (0%) n (%) | TEAEs [2, 10]: 5 (100%) n (%) | exposure based on AUC, fed vs. fasted ([3]; 90 mg): no significant difference | t1/2 ([3]; SAD fasted 10 mg, Day 1, plasma, mean (n = 5)): 12.0^‡ hr | t1/2 ([3]; SAD fasted 450 mg (n = 6), plasma, mean): 12.2 h | increase of Cmax and AUC with dose ([3]; SAD, 10 mg to 1120 mg): slightly greater than dose proportionally | AUC0-48h lower under fed vs fasted conditions (geometric least-squares mean) ([3]; single 90 mg oral dose): ~20% | AUC0-inf lower under fed vs fasted conditions (geometric least-squares mean) ([3]; single 90 mg oral dose): ~20% | Cmax lower under fed vs fasted conditions (geometric least-squares mean) ([3]; single 90 mg oral dose): approximately 40% | CHI3L1 (YKL-40) in CSF vs placebo [4, 11]: significantly decreased | CLU (clusterin) in CSF vs placebo [4, 11]: significantly decreased | SMOC1 in CSF vs placebo [4, 11]: significantly decreased | number of significantly abundant proteins in CSF, CT1812 vs placebo ([4]; N=18, p<0.05): 326
